{"source": "patent US6660255B1", "about": "“Inhibition of gene transcription by polyamide DNA-binding ligands” (California Institute of Technology, priority 1997, dated 2003)", "test_system": "CMV major immediate early promoter", "test": "CMV MIEP transcription in vitro (control template)", "type": "biochemical, human cytomegalovirus", "settings": "H9/HeLa extract system", "description": "The effects of polyamides 1 and 2 on HIV-1 transcription were tested in an in vitro transcription assay with a HeLa cell nuclear extract (FIG. 21A). The effects of the polyamides on basal transcription by RNA polymerase II was monitored with a nuclear extract prepared from HeLa cells (J. D. Dignam, P. L. Martin, B. S. Shastry, R. G. Roeder, Describe eukaryotic gene transcription with purified components Meth. Enzymol. 101, 582 (1983)). The human lymphloid cell line H9 (ATCC HTB 176) was grown in suspension culture in RPMI medium (Bio Whittaker) supplemented with 10% fetal calf serum (Tissue Culture Biological). Whole cell extracts of H9 cells in log phase growth were prepared by hypotonic lysis and contained 20 mg/ml protein, as determined by the Bradford reaction. Run-off RNA transcripts of ˜300 bases (CMV MIEP linked to a guanine-less cassette, plasmid pEIB-GL and ˜500 bases (pHIV LTR-CAT) where obtained with EcoRI-digested plasmid DNA (100 ng per 25 μL reaction).\nPolyamide-DNA complexes were allowed to form at ambient temperature for 30 min prior to addition of the nuclear extract. […] RNA was purified by extraction with RNAzol (TelTest, Friendswood, Tex.) and analyzed by electrophoresis on a denaturing (8.3 M urea) 6% polyacrylamide gel. […]", "data": [{"smiles": "CN(C)CCCNC(=O)CCNC(=O)c1cc(NC(=O)c2nc(NC(=O)CCNC(=O)c3cc(NC(=O)c4nc(NC(=O)CCCNC(=O)c5cc(NC(=O)c6nc(NC(=O)CCNC(=O)c7cc(NC(=O)c8nccn8C)cn7C)cn6C)cn5C)cn4C)cn3C)cn2C)cn1C", "note": "[polyamide 4, ImPy-β-ImPy-γ-ImPy-β-ImPy-β-Dp]", "values": [{"measurement": "inhibition of CMV transcription", "result": "fails to inhibit"}]}]}
